Source: patent publication US20230331673A1, “COMPOSITION OF COMPOUNDS THAT MODULATE CELL METABOLISM AND METHODS OF USE” (CRESCENTA BIOSCIENCES, priority 2020, published 2023)

system: differentiated 3T3-L1 mouse adipocyte cells; test: Adipocyte glucose consumption in differentiated 3T3-L1 mouse adipocyte cells (loss of glucose from medium, colorimetric); type: cell-based; settings: compound 10 μM, 22 to 24 hours, differentiated 3T3-L1 adipocytes, compound/DMSO, read-out: Glucose consumption (fold change) Mean
Experimental: Activity of compounds on adipocyte glucose consumption was tested in differentiated 3T3-L1 mouse adipocyte cells. 3T3-L1 preadipocytes (ATCC) were routinely cultured in a growth medium composed of DMEM high-glucose (Sigma), 10% FBS (Gibco), 10 U/ml penicillin and 10 μg/ml streptomycin (P/S; Gibco). To induce adipogenic differentiation, a confluent layer of 3T3-L1 cells were incubated with the growth medium containing 2 μM rosiglitazone, 1 μM dexamethasone, 500 μM IBMX, and 1 μg/ml insulin (Sigma). Forty-eight (48) hours later (on day 2) and on days 4 and 6, medium of the cells was replaced with fresh medium containing 1 μg/ml insulin. On days 8 and 10, the medium was refreshed with regular growth medium and addition of insulin was omitted. On day 11 or 12, medium of the cells were replaced with fresh medium containing either the indicated compounds (10 μM) or the vehicle in which the compounds were dissolved (DMSO). The final concentration of DMSO was 0.1% (v/v). Growth medium containing 0.1% DMSO was incubated in culture wells containing no cells and used as control. Twenty-two to 24 hours later, medium was harvested and subjected to centrifugation at 10,000 g for 5 min. Glucose concentration in the supernatants was determined using a colorimetric assay (Glucose Assay Kit I, Eton Biosciences). Glucose consumption in compound and vehicle treated cells was measured as loss of glucose from the culture medium and represented as mean fold change (compound/DMSO) t standard deviation (SD).

| SMILES | fold induction at 10 µM |
| --- | --- |
| CCCCC1CCCc2c(n(Cc3cccc(OC)c3)c3c(C(=O)O)cccc23)C1 (stereo not drawn) [7-butyl-5-[(3-methoxyphenyl)methyl]-5H,6H,7H,8H,9H,10H-cyclohepta[b]indole-4-carboxylic acid] | 1.23 |
| CCCCC1CCCc2c(n(Cc3cccc(C)c3)c3c(C(=O)O)cccc23)C1 (stereo not drawn) [7-butyl-5-[(3-methylphenyl)methyl]-5H,6H,7H,8H,9H,10H-cyclohepta[b]indole-4-carboxylic acid] | 1.32 |
| CCCCC1CCCc2c(n(Cc3ccc(C(N)=O)cc3)c3c(C(=O)O)cccc23)C1 (stereo not drawn) [7-butyl-5-[(4-carbamoylphenyl)methyl]-5H,6H,7H,8H,9H,10H-cyclohepta[b]indole-4-carboxylic acid] | 1.13 |
| CCCCC1CCCc2c(n(Cc3ccc(C)cc3)c3c(C(=O)O)cccc23)C1 (stereo not drawn) [7-butyl-5-[(4-methylphenyl)methyl]-5H,6H,7H,8H,9H,10H-cyclohepta[b]indole-4-carboxylic acid] | 1.27 |
| CCCCC1CCCc2c(n(Cc3cccnc3)c3c(C(=O)O)cccc23)C1 (stereo not drawn) [7-butyl-5-[(pyridin-3-yl)methyl]-5H,6H,7H,8H,9H,10H-cyclohepta[b]indole-4-carboxylic acid] | 1.21 |
| CCCCCCC1CCCc2c(n(Cc3ccnc(OC)c3)c3c(C(=O)O)cccc23)C1 (stereo not drawn) [7-hexyl-5-[(2-methoxypyridin-4-yl)methyl]-5H,6H,7H,8H,9H,10H-cyclohepta[b]indole-4-carboxylic acid] | 1.12 |
| CCCCCCC1CCCc2c(n(Cc3ccccc3C)c3c(C(=O)O)cccc23)C1 (stereo not drawn) [7-hexyl-5-[(2-methylphenyl)methyl]-5H,6H,7H,8H,9H,10H-cyclohepta[b]indole-4-carboxylic acid] | 1 |
| CCCCCCC1CCCc2c(n(Cc3cccc(C)c3)c3c(C(=O)O)cccc23)C1 (stereo not drawn) [7-hexyl-5-[(3-methylphenyl)methyl]-5H,6H,7H,8H,9H,10H-cyclohepta[b]indole-4-carboxylic acid] | 1.13 |
| CCCCCCC1CCCc2c(n(Cc3ccc(C)cc3)c3c(C(=O)O)cccc23)C1 (stereo not drawn) [7-hexyl-5-[(4-methylphenyl)methyl]-5H,6H,7H,8H,9H,10H-cyclohepta[b]indole-4-carboxylic acid] | 1.05 |
| CCCCCCC1CCCc2c(n(Cc3cccnc3)c3c(C(=O)O)cccc23)C1 (stereo not drawn) [7-hexyl-5-[(pyridin-3-yl)methyl]-5H,6H,7H,8H,9H,10H-cyclohepta[b]indole-4-carboxylic acid] | 1.14 |
| CCCCCCC1CCc2c(n(Cc3ccccc3C#N)c3c(C(=O)O)cccc23)C1 (stereo not drawn) [9-[(2-cyanophenyl)methyl]-2-hexyl-2,3,4,9-tetrahydro-1H-carbazole-8-carboxylic acid] | 1.13 |
| CCCCCCC1CCc2c(n(Cc3ccccc3F)c3c(C(=O)O)cccc23)C1 (stereo not drawn) [9-[(2-fluorophenyl)methyl]-2-hexyl-2,3,4,9-tetrahydro-1H-carbazole-8-carboxylic acid] | 1.24 |
| CCCCCOC1CCCc2c1n(Cc1cccc(C(N)=O)c1)c1c(C(=O)O)cccc21 (stereo not drawn) [9-[(3-carbamoylphenyl)methyl]-1-(pentyloxy)-2,3,4,9-tetrahydro-1H-carbazole-8-carboxylic acid] | 1.09 |
| CCC1CCCc2c1n(Cc1cccc(C(N)=O)c1)c1c(C(=O)O)cccc21 (stereo not drawn) [9-[(3-carbamoylphenyl)methyl]-1-ethyl-2,3,4,9-tetrahydro-1H-carbazole-8-carboxylic acid] | 0.94 |
| CCCOC1CCCc2c1n(Cc1cccc(C(N)=O)c1)c1c(C(=O)O)cccc21 (stereo not drawn) [9-[(3-carbamoylphenyl)methyl]-1-propoxy-2,3,4,9-tetrahydro-1H-carbazole-8-carboxylic acid] | 1.03 |
| CCC1CCc2c(n(Cc3cccc(C(N)=O)c3)c3c(C(=O)O)cccc23)C1 (stereo not drawn) [9-[(3-carbamoylphenyl)methyl]-2-ethyl-2,3,4,9-tetrahydro-1H-carbazole-8-carboxylic acid] | 1.06 |
| CCCCCCC1CCc2c(n(Cc3cccc(C(N)=O)c3)c3c(C(=O)O)cccc23)C1 (stereo not drawn) [9-[(3-carbamoylphenyl)methyl]-2-hexyl-2,3,4,9-tetrahydro-1H-carbazole-8-carboxylic acid] | 1.13 |
| CCCCCC1CCc2c(n(Cc3cccc(C(N)=O)c3)c3c(C(=O)O)cccc23)C1 (stereo not drawn) [9-[(3-carbamoylphenyl)methyl]-2-pentyl-2,3,4,9-tetrahydro-1H-carbazole-8-carboxylic acid] | 1.13 |
| CCCC1CCc2c(n(Cc3cccc(C(N)=O)c3)c3c(C(=O)O)cccc23)C1 (stereo not drawn) [9-[(3-carbamoylphenyl)methyl]-2-propyl-2,3,4,9-tetrahydro-1H-carbazole-8-carboxylic acid] | 1.09 |
| CCC1CCc2c(c3cccc(C(=O)O)c3n2Cc2cccc(C(N)=O)c2)C1 (stereo not drawn) [9-[(3-carbamoylphenyl)methyl]-3-ethyl-2,3,4,9-tetrahydro-1H-carbazole-8-carboxylic acid] | 1.1 |
| CCCCCC1CCc2c(c3cccc(C(=O)O)c3n2Cc2cccc(C(N)=O)c2)C1 (stereo not drawn) [9-[(3-carbamoylphenyl)methyl]-3-pentyl-2,3,4,9-tetrahydro-1H-carbazole-8-carboxylic acid] | 1.08 |
| CCCC1CCc2c(c3cccc(C(=O)O)c3n2Cc2cccc(C(N)=O)c2)C1 (stereo not drawn) [9-[(3-carbamoylphenyl)methyl]-3-propyl-2,3,4,9-tetrahydro-1H-carbazole-8-carboxylic acid] | 1.1 |
| CCC1CCCc2c1c1cccc(C(=O)O)c1n2Cc1cccc(C(N)=O)c1 (stereo not drawn) [9-[(3-carbamoylphenyl)methyl]-4-ethyl-2,3,4,9-tetrahydro-1H-carbazole-8-carboxylic acid] | 1.21 |
| CCCCCC1CCCc2c1c1cccc(C(=O)O)c1n2Cc1cccc(C(N)=O)c1 (stereo not drawn) [9-[(3-carbamoylphenyl)methyl]-4-pentyl-2,3,4,9-tetrahydro-1H-carbazole-8-carboxylic acid] | 1.12 |
| CCCC1CCCc2c1c1cccc(C(=O)O)c1n2Cc1cccc(C(N)=O)c1 (stereo not drawn) [9-[(3-carbamoylphenyl)methyl]-4-propyl-2,3,4,9-tetrahydro-1H-carbazole-8-carboxylic acid] | 1.04 |
| CCC1CCCc2c1n(Cc1cccc(C(=O)O)c1)c1c(C(=O)O)cccc21 (stereo not drawn) [9-[(3-carboxyphenyl)methyl]-1-ethyl-2,3,4,9-tetrahydro-1H-carbazole-8-carboxylic acid] | 1.09 |
| CCC1CCc2c(n(Cc3cccc(C(=O)O)c3)c3c(C(=O)O)cccc23)C1 (stereo not drawn) [9-[(3-carboxyphenyl)methyl]-2-ethyl-2,3,4,9-tetrahydro-1H-carbazole-8-carboxylic acid] | 1.11 |
| CCC1CCCc2c1c1cccc(C(=O)O)c1n2Cc1cccc(C(=O)O)c1 (stereo not drawn) [9-[(3-carboxyphenyl)methyl]-4-ethyl-2,3,4,9-tetrahydro-1H-carbazole-8-carboxylic acid] | 1.06 |
| CCCCCOC1CCCc2c1n(Cc1cccc(C#N)c1)c1c(C(=O)O)cccc21 (stereo not drawn) [9-[(3-cyanophenyl)methyl]-1-(pentyloxy)-2,3,4,9-tetrahydro-1H-carbazole-8-carboxylic acid] | 1.19 |
| CCC1CCCc2c1n(Cc1cccc(C#N)c1)c1c(C(=O)O)cccc21 (stereo not drawn) [9-[(3-cyanophenyl)methyl]-1-ethyl-2,3,4,9-tetrahydro-1H-carbazole-8-carboxylic acid] | 1.11 |
